# Values quoted from earlier work, collected in patent US20040248846A1, “Intranasal administration of triptans” (Nastech Pharmaceutical Company Inc., priority 2003, published 2004).
# Where two headings read alike, the source gives them in different places.
# Columns and labels:
# [1] = single 6 mg subcutaneous dose, 18 healthy males
smiles,measurement,setting,value
CNS(=O)(=O)Cc1ccc2[nH]cc(CCN(C)C)c2c1 [sumatriptan],efficacy (effective),patients with migraine; 6 mg subcutaneous dose,~85%
same,Onset of pain relief,patients with migraine; after a nasal dose,30 min
same,Onset of pain relief,patients with migraine; after a subcutaneous dose,10 to 34 min
same,mean Cmax,"5 mg intranasal dose, 20 females",5 ng/mL
same,mean Cmax,"20 mg intranasal dose, 20 females",16 ng/mL
same,mean Cmax,oral dosing with 25 mg,approximately 18 ng/ml
same,tmax,oral dosing with 25 mg,approximately 2 hours
same,mean Cmax,[1],74 ± 15 ng/mL
same,median tmax,[1],12 min
